Measurements: ChEMBL document CHEMBL4007440, “Development of the First Generation of Disulfide-Based Subtype-Selective and Potent Covalent Pyruvate Dehydrogenase Kinase 1 (PDK1) Inhibitors” (J Med Chem, 2017)
The source made the active and inactive calls. The calls are words filed in the database; no cut-off is given here.

Legend:
[1] = target: T1, [Pyruvate dehydrogenase (acetyl-transferring)] kinase isozyme 1, mitochondrial (Homo sapiens, UniProt Q15118); test: Inhibition of full length His6-tagged PDK1 (unknown origin) expressed in Escherichia coli using full length His6-tagged PDHA1 as substrate after 30 mins by ELISA
[2] = target: T1, [Pyruvate dehydrogenase (acetyl-transferring)] kinase isozyme 1, mitochondrial; test: Inhibition of PDK1 in human A549 cells assessed as reduction in phosphorylation of PDHE1 at S293 residue at 10 uM after 24 hrs by chemiluminescence/femtochemiluminescence method; assay type: cell-based
[3] = target: T1, [Pyruvate dehydrogenase (acetyl-transferring)] kinase isozyme 1, mitochondrial; test: Inhibition of PDK1 in human A549 cells assessed as reduction in phosphorylation of PDHE1 at S232 residue at 1 uM after 24 hrs by chemiluminescence/femtochemiluminescence method; assay type: cell-based
[4] = target: T1, [Pyruvate dehydrogenase (acetyl-transferring)] kinase isozyme 1, mitochondrial; test: Inhibition of PDK1 in human A549 cells assessed as reduction in phosphorylation of PDHE1 at S293 residue at 1 uM after 24 hrs by chemiluminescence/femtochemiluminescence method; assay type: cell-based
[5] = target: T1, [Pyruvate dehydrogenase (acetyl-transferring)] kinase isozyme 1, mitochondrial; test: Inhibition of PDK1 in human A549 cells assessed as reduction in phosphorylation of PDHE1 at S232 residue at 10 uM after 24 hrs by chemiluminescence/femtochemiluminescence method; assay type: cell-based
[6] = target: T1, [Pyruvate dehydrogenase (acetyl-transferring)] kinase isozyme 1, mitochondrial; test: Inhibition of full length His6-tagged PDK1 (unknown origin) expressed in Escherichia coli assessed as inactivation rate using full length His6-tagged PDHA1 as substrate up to 45 mins by ELISA
[7] = target: T1, [Pyruvate dehydrogenase (acetyl-transferring)] kinase isozyme 1, mitochondrial; test: Ratio of Kinact to Ki for full length His6-tagged PDK1 (unknown origin) expressed in Escherichia coli
[8] = target: T1, [Pyruvate dehydrogenase (acetyl-transferring)] kinase isozyme 1, mitochondrial; test: Inhibition of full length His6-tagged PDK1 (unknown origin) expressed in Escherichia coli up to 10 uM using full length His6-tagged PDHA1 as substrate after 30 mins by ELISA
[9] = Antiproliferative activity against human GM00637 cells after 72 hrs by CCK8 assay; assay type: cell-based; conditions: GM00637, 72 h
[10] = test system: A549; test: Antitumor activity against human A549 cells xenografted in BALB/c nude mouse assessed as reduction in tumor weight at 40 to 80 mg/kg, ip for 21 days measured on day 21 post dose; assay type: functional, organism-based
[11] = Antiproliferative activity against human Kelly cells after 72 hrs by CCK8 assay
[12] = target: [Pyruvate dehydrogenase (acetyl-transferring)] kinase isozyme 4, mitochondrial (Homo sapiens, UniProt Q16654); test: Inhibition of PDK4 (unknown origin) at 10 uM using full length His6-tagged PDHA1 as substrate after 30 mins by ELISA
[13] = target: T1, [Pyruvate dehydrogenase (acetyl-transferring)] kinase isozyme 1, mitochondrial; test: Inhibition of PDK1 in human A549 cells assessed as increase in reactive oxygen species after 24 hrs by dihydroethidium staining based FACS analysis; assay type: cell-based
[14] = test system: A549; test: Antitumor activity against human A549 cells xenografted in BALB/c nude mouse assessed as tumor growth inhibition at 80 mg/kg, ip for 21 days measured on day 21 post dose relative to control; assay type: functional; conditions: 504 h, read-out: TGI
[15] = test system: L02; test: Antiproliferative activity against human LO2 cells after 72 hrs by CCK8 assay; assay type: cell-based; conditions: L02, 72 h
[16] = target: [Pyruvate dehydrogenase (acetyl-transferring)] kinase isozyme 3, mitochondrial (Homo sapiens, UniProt Q15120); test: Inhibition of PDK3 (unknown origin) using full length His6-tagged PDHA1 as substrate after 30 mins by ELISA
[17] = test system: A549; test: Antitumor activity against human A549 cells xenografted in BALB/c nude mouse assessed as tumor growth inhibition at 40 mg/kg, ip for 21 days measured on day 21 post dose relative to control; assay type: functional; conditions: 504 h, read-out: TGI
[18] = test system: Mus musculus; test: Toxicity in BALB/c nude mouse assessed as body weight loss at 40 to 80 mg/kg, ip for 21 days; assay type: organism-based; conditions: in vivo, 504 h
[19] = target: [Pyruvate dehydrogenase (acetyl-transferring)] kinase isozyme 2, mitochondrial (Homo sapiens, UniProt Q15119); test: Inhibition of PDK2 (unknown origin) using full length His6-tagged PDHA1 as substrate after 30 mins by ELISA
[20] = test system: A549; test: cells; conditions: Homo sapiens, A549, 72 h
Description: Antiproliferative activity against human A549 cells after 72 hrs by CCK8 assay

[21] = target: T1, [Pyruvate dehydrogenase (acetyl-transferring)] kinase isozyme 1, mitochondrial; test: Inhibition of PDK1 in human A549 cells assessed as reduction in extracellular acidification rate after 24 hrs by fluorescent biosensor based assay; assay type: cell-based
[22] = target: T1, [Pyruvate dehydrogenase (acetyl-transferring)] kinase isozyme 1, mitochondrial; test: Inhibition of PDK1 in human A549 cells assessed as reduction in phosphorylation of PDHE1 at S293 residue after 24 hrs by chemiluminescence/femtochemiluminescence method; assay type: cell-based
[23] = target: T1, [Pyruvate dehydrogenase (acetyl-transferring)] kinase isozyme 1, mitochondrial; test: Inhibition of full length His6-tagged PDK1 (unknown origin) expressed in Escherichia coli using full length His6-tagged PDHA1 as substrate in presence of GSH after 30 mins by ELISA
[24] = target: T1, [Pyruvate dehydrogenase (acetyl-transferring)] kinase isozyme 1, mitochondrial; test: Inhibition of PDK1 in human A549 cells assessed as reduction in phosphorylation of PDHE1 at S232 residue after 24 hrs by chemiluminescence/femtochemiluminescence method; assay type: cell-based

T1 sequence (Q15118 whole entry): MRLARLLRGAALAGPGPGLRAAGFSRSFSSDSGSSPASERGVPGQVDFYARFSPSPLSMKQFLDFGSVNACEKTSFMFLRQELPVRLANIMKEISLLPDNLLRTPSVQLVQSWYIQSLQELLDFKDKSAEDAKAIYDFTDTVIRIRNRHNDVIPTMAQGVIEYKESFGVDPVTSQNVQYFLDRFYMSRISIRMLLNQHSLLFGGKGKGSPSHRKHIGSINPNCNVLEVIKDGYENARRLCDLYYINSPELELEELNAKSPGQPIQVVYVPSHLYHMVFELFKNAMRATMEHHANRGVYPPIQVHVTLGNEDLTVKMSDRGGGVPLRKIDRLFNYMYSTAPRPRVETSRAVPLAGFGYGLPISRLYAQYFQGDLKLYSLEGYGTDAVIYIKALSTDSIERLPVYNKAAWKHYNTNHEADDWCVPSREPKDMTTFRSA
Chain of [Pyruvate dehydrogenase (acetyl-transferring)] kinase isozyme 3, mitochondrial (Q15120 whole entry): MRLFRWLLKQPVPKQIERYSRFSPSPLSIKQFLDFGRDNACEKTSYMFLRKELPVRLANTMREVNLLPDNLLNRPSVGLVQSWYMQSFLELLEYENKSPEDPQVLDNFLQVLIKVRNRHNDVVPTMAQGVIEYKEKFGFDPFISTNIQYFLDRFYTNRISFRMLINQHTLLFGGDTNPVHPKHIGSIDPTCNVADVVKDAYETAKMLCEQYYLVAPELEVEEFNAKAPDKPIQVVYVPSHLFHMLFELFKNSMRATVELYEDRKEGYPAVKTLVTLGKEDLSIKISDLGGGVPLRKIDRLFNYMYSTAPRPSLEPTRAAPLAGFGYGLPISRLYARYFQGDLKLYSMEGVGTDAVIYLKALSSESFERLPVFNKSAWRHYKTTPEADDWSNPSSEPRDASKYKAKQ
Chain of [Pyruvate dehydrogenase (acetyl-transferring)] kinase isozyme 4, mitochondrial (Q16654 whole entry, looked up): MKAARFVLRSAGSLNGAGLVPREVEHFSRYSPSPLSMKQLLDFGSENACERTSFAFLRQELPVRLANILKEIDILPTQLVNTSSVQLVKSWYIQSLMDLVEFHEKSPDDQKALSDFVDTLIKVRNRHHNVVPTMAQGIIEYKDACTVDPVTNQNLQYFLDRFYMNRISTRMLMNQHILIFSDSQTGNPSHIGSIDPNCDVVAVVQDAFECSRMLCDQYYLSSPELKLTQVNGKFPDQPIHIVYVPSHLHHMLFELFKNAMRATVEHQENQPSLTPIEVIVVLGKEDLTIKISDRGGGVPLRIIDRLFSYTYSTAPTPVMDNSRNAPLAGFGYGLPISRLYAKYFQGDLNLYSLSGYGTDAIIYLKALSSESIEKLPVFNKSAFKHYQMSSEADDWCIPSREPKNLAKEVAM

**Q.** For `CN(C)C(=O)OCC1CN(C(=S)SSC(=S)N2CCOC(COC(=O)N(C)C)C2)CCO1` (stereo not given), which IC50 [1] is on record?
**A.** 1700 nM

**Q.** Which results are given for `CCOC[C@@H]1COCCN1C(=S)SSC(=S)N1CCOC[C@H]1COCC`?
**A.** inhibition [2]: Active; IC50 [1]: 72 nM; inhibition [3]: Active; inhibition [4]: Active; inhibition [5]: Active

**Q.** With `CC(=O)OCC1CN(C(=S)SSC(=S)N2CCOC(COC(C)=O)C2)CCO1` (stereo not given) as the compound, how does the inhibition [2] read?
**A.** Active

**Q.** And the IC50 [1]?
**A.** 113 nM

**Q.** What about the inhibition [3] of the same compound?
**A.** Active

**Q.** What about the inhibition [4] of the same compound?
**A.** Active

**Q.** And the inhibition [5]?
**A.** Active

**Q.** Which IC50 [1] does the source give for `C1CCc2sc(SSc3nc4c(s3)CCCC4)nc2C1` here?
**A.** 90 nM

**Q.** What does the source list for `C1CCc2nc(SSc3nc4c(s3)CCCCC4)sc2CC1`?
**A.** Kinact [6]: 69.9 ×10⁻⁴ /s; Ratio [7]: 3.93 ×10³ /M/s; IC50 [1]: 39 nM; Ki [1]: 1800 nM

**Q.** For `O=[N+]([O-])c1ccc2nc(SSc3nc4ccc([N+](=O)[O-])cc4s3)sc2c1`, which IC50 [1] is on record?
**A.** 161 nM

**Q.** Which inhibition [8] does the source give for `Sc1nc2ccccc2s1` here?
**A.** inactive

**Q.** With `c1cnc2sc(SSc3nc4cccnc4s3)nc2c1` as the compound, how does the IC50 [1] read?
**A.** 476 nM

**Q.** With `CCOC(=O)C1CCc2nc(S)sc2C1` (stereo not given) as the compound, how does the inhibition [8] read?
**A.** inactive

**Q.** For `Cc1ccc(OCC2CN(C(=S)SSC(=S)N3CCCOC(COc4ccc(C)cc4)C3)CCCO2)cc1` (stereo not given), which IC50 [1] is on record?
**A.** > 10000 nM

**Q.** For `CC1CCc2nc(SSc3nc4c(s3)CC(C)CC4)sc2C1` (stereo not given), which IC50 [1] is on record?
**A.** 119 nM

**Q.** With `C1Cc2nc(SSc3nc4c(s3)CCC4)sc2C1` as the compound, how does the IC50 [1] read?
**A.** 139 nM

**Q.** What does the source list for `OC[C@@H]1COCCN1C(=S)SSC(=S)N1CCOC[C@H]1CO`?
**A.** Kinact [6]: 3.24 ×10⁻⁴ /s; Ratio [7]: 0.54 ×10³ /M/s; IC50 [1]: 2440 nM; Ki [1]: 4030 nM

**Q.** With `O=C(O)C1CCc2nc(SSc3nc4c(s3)CC(C(=O)O)CC4)sc2C1` (stereo not given) as the compound, how does the IC50 [1] read?
**A.** 130 nM

**Q.** What does the source list for `S=C(SSC(=S)N1CCOCC1)N1CCOCC1`?
**A.** IC50 [9]: > 10000 nM; Activity [10]: Active; IC50 [11]: 289 nM; inhibition [12]: inactive; inhibition [13]: Dose-dependent effect; inhibition in vivo at 80 mg/kg [14]: 50.4%; IC50 [1]: 49 nM; Ki [1]: 462 nM; IC50 [15]: > 10000 nM; Ki [16]: 2850 nM; inhibition in vivo at 40 mg/kg [17]: 27.7%; Activity [18]: Non-Toxic; Ki [19]: 176 nM; IC50 [20]: 480 nM; inhibition [21]: Dose-dependent effect; inhibition [22]: Dose-dependent effect; inhibition [23]: inactive; inhibition [24]: Dose-dependent effect

**Q.** What does the source list for `S=C(SSC(=S)N1CCO[C@H]2CCCC[C@@H]21)N1CCO[C@H]2CCCC[C@@H]21`?
**A.** inhibition [2]: Active; IC50 [1]: 289 nM

**Q.** Which IC50 [1] does the source give for `Cc1ccc(OCC2CN(C(=S)SSC(=S)N3CCOC(COc4ccc(C)cc4)C3)CCO2)cc1` (stereo not given) here?
**A.** 2410 nM

**Q.** Which IC50 [1] does the source give for `c1ccc2sc(SSc3nc4ccccc4s3)nc2c1` [BENZOTHIAZYL DISULFIDE] here?
**A.** 379 nM

**Q.** Which inhibition [2] does the source give for `CC1CN(C(=S)SSC(=S)N2CCOC(C)C2)CCO1` (stereo not given) here?
**A.** Active

**Q.** And the IC50 [1]?
**A.** 96 nM

**Q.** What about the inhibition [3] of the same compound?
**A.** Active

**Q.** And the inhibition [4]?
**A.** Active

**Q.** What about the inhibition [5] of the same compound?
**A.** Active

**Q.** Which inhibition [2] does the source give for `COC(=O)C1CN(C(=S)SSC(=S)N2CCOC(C(=O)OC)C2)CCO1` (stereo not given) here?
**A.** Active

**Q.** And the IC50 [1]?
**A.** 85 nM

**Q.** And the inhibition [3]?
**A.** Active

**Q.** What about the inhibition [4] of the same compound?
**A.** Active

**Q.** And the inhibition [5]?
**A.** Active

**Q.** With `OC1CN(C(=S)SSC(=S)N2CC(O)C2)C1` as the compound, how does the Kinact [6] read?
**A.** 4.74 ×10⁻⁴ /s

**Q.** What about the Ratio [7] of the same compound?
**A.** 0.07 ×10³ /M/s

**Q.** And the IC50 [1]?
**A.** 395 nM

**Q.** And the Ki [1]?
**A.** 872 nM

**Q.** For `OCC1CN(C(=S)SSC(=S)N2CCCOC(CO)C2)CCCO1` (stereo not given), which IC50 [1] is on record?
**A.** 2850 nM
